Earlier results as cited in patent US20090004173A1, “Diagnosis and Treatment of Drug Resistant Leukemia” (priority 2004, published 2009).
Like-named read-outs stand apart in the source and are kept apart here.

B1: L-asparaginase (protein, UniProt P00805 23-348, looked up)
L-asparaginase 2: LPNITILATGGTIAGGGDSATKSNYTVGKVGVENLVNAVPQLKDIANVKGEQVVNIGSQDMNDNVWLTLAKKINTDCDKTDGFVITHGTDTMEETAYFLDLTVKCDKPVVMVGAMRPSTSMSADGPFNLYNAVVTAADKASANRGVLVVMNDTVLDGRDVTKTNTTDVATFKSVNYGPLGYIHNGKIDYQRTPARKHTSDTPFDVSKLNELPKVGIVYNYANASDLPAKALVDAGYDGIVSAGVGNGNLYKSVFDTLATAAKTGTAVVRSSRVPTGATTQDAEVDDAKYGFVASGTLNPQKARVLLQLALTQTKDPQQIQQIFNQY

Key:
leukemia cells = conditions: for LC50 values for classification of ALL: Resistant / LC50 values for classification of ALL: Sensitive: LC50 by MTT, cut-off previously associated with treatment outcome
non-leukemic cell lines = conditions: Niitsu et al. (2000)
[1] = classification cut-off: cell is resistant if LC-50 is equal to or greater than the value

Molecule	LC50 values for classification of ALL: Resistant (leukemia cells)	LC50 values for classification of ALL: Sensitive (leukemia cells)	LC-50 values for classifying leukemia cells as drug-resistant (leukemia cells; [1])	sensitization to the cytotoxicity of daunorubicin and doxorubicin (non-leukemic cell lines)	LC-50 values for classifying leukemia cells as drug-resistant (leukemia cells)
COc1cccc2c1C(=O)c1c(O)c3c(c(O)c1C2=O)C[C@@](O)(C(C)=O)C[C@@H]3O[C@H]1C[C@H](N)[C@H](O)[C@H](C)O1 [Daunorubicin, daunorubicin]	≧0.114 μg/ml	≦0.075 μg/ml	≧0.114 μg/ml		
CC[C@]1(O)C[C@H]2CN(CCc3c([nH]c4ccccc34)[C@@](C(=O)OC)(c3cc4c(cc3OC)N(C=O)[C@H]3[C@@](O)(C(=O)OC)[C@H](OC(C)=O)[C@]5(CC)C=CCN6CC[C@]43[C@@H]65)C2)C1 [Vincristine, vincristine]	≧1.758 μg/ml	≦0.391 μg/ml	≧1.758 μg/ml		
CCCC(=O)OCOC(=O)C(C)(C)C [AN-9]				sensitize non-leukemic cell lines to the cytotoxicity of daunorubicin and doxorubicin	
C[C@]12C=CC(=O)C=C1CC[C@@H]1[C@@H]2[C@@H](O)C[C@@]2(C)[C@H]1CC[C@]2(O)C(=O)CO [Prednisolone, prednisolone]	≧150 μg/ml	≦0.100 μg/ml	≧150 μg/ml		
B1	≧0.912 IU/ml	≦0.033 IU/ml			≧0.912 IU/ml
